The source of these data is EP4717694A1, “PYRAZOLFORMYL PIPERAZINONE COMPOUND, PHARMACEUTICAL COMPOSITION AND USE THEREOF” (Iregene Therapeutics Co., Ltd., priority 2023, dated 2024).

One experiment addresses T1, BMPR2 (Homo sapiens, UniProt Q13873).
T1 sequence (Q13873 27-1038): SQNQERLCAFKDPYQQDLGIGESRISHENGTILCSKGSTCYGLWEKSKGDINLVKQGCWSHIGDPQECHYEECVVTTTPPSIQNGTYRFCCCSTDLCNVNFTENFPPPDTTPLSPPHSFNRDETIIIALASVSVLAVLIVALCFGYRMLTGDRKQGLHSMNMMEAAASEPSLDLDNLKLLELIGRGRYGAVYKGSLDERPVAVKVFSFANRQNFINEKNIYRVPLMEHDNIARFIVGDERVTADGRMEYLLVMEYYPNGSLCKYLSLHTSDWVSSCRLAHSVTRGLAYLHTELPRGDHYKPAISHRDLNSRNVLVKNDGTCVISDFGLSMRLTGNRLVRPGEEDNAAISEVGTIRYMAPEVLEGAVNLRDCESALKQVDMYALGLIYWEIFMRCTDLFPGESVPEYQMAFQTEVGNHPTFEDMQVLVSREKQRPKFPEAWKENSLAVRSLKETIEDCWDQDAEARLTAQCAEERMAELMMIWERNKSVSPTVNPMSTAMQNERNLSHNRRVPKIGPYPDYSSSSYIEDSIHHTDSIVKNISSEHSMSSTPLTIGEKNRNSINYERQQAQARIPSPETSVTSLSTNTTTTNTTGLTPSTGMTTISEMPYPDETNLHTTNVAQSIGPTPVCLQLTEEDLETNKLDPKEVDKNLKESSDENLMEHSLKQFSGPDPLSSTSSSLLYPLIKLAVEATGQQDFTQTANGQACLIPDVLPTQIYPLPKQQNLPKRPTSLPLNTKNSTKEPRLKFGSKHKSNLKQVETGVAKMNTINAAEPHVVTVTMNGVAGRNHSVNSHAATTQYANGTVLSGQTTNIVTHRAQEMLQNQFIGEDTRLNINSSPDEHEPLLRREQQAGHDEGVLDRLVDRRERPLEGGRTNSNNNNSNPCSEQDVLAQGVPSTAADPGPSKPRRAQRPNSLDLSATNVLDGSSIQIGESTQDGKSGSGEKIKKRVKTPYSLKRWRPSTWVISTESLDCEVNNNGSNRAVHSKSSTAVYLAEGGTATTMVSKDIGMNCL
Briefly: Kinase activity assay (HTRF or ADP-Glo). It counts as biochemical. How it is done: (§1) A total of 330 kinase candidates (15-50 nM, 2.5 µL) were mixed with compound II-1 (2.5 mM, 25 nL, prepared in DMSO) and incubated at 25 °C for 10 minutes. Then, a mixture of kinase peptide substrate (0.2 mg/mL; supplier: GenScript) and ATP (10-60 µM; supplier: Promega; product number: V915B) was added (total 2.5 µL, prepared in assay buffer), and the reaction was carried out at 25 °C for 60-120 minutes. Finally, the reaction products were quantified using HTRF1 or ADP-Glo2 methods. During the kinase activity assay, the consumption of each substrate was kept below 10%, and each kinase assay was performed in duplicate.
A general note: TR-FRET usually uses a lanthanide donor and a delayed reading to cut background.

A further experiment deals with T2, TGFBR1 (Homo sapiens, UniProt P36897).
T2 sequence (P36897 34-503): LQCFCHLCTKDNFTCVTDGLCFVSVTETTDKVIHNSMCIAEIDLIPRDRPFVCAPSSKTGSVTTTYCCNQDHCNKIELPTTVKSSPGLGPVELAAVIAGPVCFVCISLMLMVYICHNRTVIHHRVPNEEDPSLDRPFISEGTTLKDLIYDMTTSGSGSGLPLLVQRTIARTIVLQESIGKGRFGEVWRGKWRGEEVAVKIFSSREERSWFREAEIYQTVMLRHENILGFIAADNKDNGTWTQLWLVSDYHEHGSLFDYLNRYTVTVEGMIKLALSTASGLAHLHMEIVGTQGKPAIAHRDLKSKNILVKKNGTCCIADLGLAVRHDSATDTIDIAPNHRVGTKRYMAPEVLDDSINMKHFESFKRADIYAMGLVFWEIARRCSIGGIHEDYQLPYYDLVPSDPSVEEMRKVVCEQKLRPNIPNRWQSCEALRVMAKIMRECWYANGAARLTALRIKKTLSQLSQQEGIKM
Briefly: Kinase activity assay (HTRF or ADP-Glo). In kind it is biochemical. How it is done:
as §1

Another experiment deals with glioma U251 cells. Briefly: Treatment of glioma cells, qPCR transcriptional analysis (CASP3) and cytotoxicity versus LY2157299. In kind it is cell-based. How it is done:
In this example, compound II-1 and the reference compound LY2157299 were used to treat glioma U251 cells. Samples were collected at 12 hours and 72 hours posttreatment. Total RNA was extracted using the Rneasy Mini or Micro Kit (QIAGEN), and […] of RNA was reverse-transcribed into cDNA using the SuperScript III First-Strand Synthesis System (Invitrogen). Quantitative PCR was performed using SYBR Premix Ex Taq (TaKaRa) on a Thermal Cycler Dice Real-Time System (TaKaRa), with beta-Actin serving as an internal control. All data were analyzed using the delta-Ct method. Each experiment was performed in triplicate, and variance analysis was conducted. […] Table 3. Primers for transcriptional analysis of cells treated with compound II-1
(Quantitative PCR measures a nucleic acid by following its amplification.)

The target of another experiment is BMPR1B kinase (Homo sapiens, UniProt O00238). Nature of the experiment: Kinase activity screening (330 kinases, HTRF or ADP-Glo). In kind it is biochemical. As to conditions: screen of 330 kinases; II-1 2.5 mM, 25 nL in DMSO added to 2.5 µL kinase; Figure 1A. How it is done: as §1
Sequence of BMPR1B kinase (O00238 14-502): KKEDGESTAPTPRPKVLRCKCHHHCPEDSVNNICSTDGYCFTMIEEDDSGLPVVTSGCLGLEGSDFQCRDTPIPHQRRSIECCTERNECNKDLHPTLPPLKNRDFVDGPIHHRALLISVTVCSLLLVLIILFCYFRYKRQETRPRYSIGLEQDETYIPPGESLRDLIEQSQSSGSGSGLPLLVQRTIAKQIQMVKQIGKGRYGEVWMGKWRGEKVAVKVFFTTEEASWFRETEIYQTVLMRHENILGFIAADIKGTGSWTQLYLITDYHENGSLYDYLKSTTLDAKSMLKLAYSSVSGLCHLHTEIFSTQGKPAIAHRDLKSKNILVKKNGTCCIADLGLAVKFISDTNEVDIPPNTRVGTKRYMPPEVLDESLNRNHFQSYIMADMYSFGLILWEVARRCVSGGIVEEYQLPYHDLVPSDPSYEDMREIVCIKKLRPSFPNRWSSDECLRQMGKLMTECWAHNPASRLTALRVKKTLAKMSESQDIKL
The mark [1] stands for this setting: same concentration as in the 330 kinase screen.

SMILES strings stand for the structures.

Turning to `O=C1CN(C(=O)c2n[nH]c3c2CCC3)[C@H]2CCCC[C@@H]2N1` [II-1, (4aS,8aS)-4-(1,4,5,6-tetrahydrocyclopenta[c]pyrazole-3-carbonyl)octahydroquinoxalin-2(1H)-one], the “inhibition of BMPR2 kinase” value at BMPR2 (different concentrations, up to 12.5 µM, threefold serial dilution, Figure 1C) was “no inhibition”. For the same compound, the “inhibition of kinase activity of BMPR2” value against BMPR2 (setting [1]) is listed as “did not inhibit”. Also, the “inhibition of TGFBR1 kinase” value against TGFBR1 (different concentrations, up to 12.5 µM, threefold serial dilution, Figure 1B) is given as “no inhibition”. Also, the “inhibition of kinase activity of TGFBR1” value against TGFBR1 (setting [1]) is given as “did not inhibit”. In addition, the “cells remaining in the wells compared to LY2157299” value with glioma U251 cells (after 72 hours of treatment, Figure 3) is recorded as “fewer cells remained”. For the same compound, in the experiment on glioma U251 cells (same concentration as LY2157299, Figure 3), the “apoptosis compared to LY2157299” value is “higher apoptosis”. Moreover, at BMPR1B kinase, the “inhibitory activity against BMPR1B kinase” value is listed as “significant inhibitory activity”.
